The values below come from patent publication US11980607B2, “Methods of treating malignant lymphoproliferative disorders” (Actuate Therapeutics Inc., priority 2018, dated 2024).

The subject of one experiment is Jeko. Nature of the experiment: Apoptosis assay (Annexin V/PI), cell survival. Type of experiment: cell-based. The settings on record: Homo sapiens; Jeko (MCL), 48 hours. As to the method: (§1) Cells were seeded at 5×10^5 cells/well in 24 well plates, and incubated with 9-ING-41 at indicated concentrations for 48 hours. The cells were then stained with FITC conjugated Annexin V (Life Technologies) and Propidium Iodide followed by analysis on a BD FACS Calibur flow cytometer.
(§2) The IC50S of 9-ING-41 on cell survival and proliferation was calculated using an on-line IC50 calculation tool (https://www.aatbio.com/tools/ic50-calculator/).
(§3) Given that both GSK3α and GSK3β are overexpressed in lymphoma cells, and that both enzymes are implicated in multiple signaling pathways critical for cell functions, whether GSK3α and GSK3β are functionally supporting the survival and proliferation of lymphoma cells was examined. […] The inhibitory concentrations of 9-ING-41 at half of the maximal effect (IC50) on cell survival of various lymphoma cell lines was calculated (Table 1).

The test system of another experiment is OCI-LY19. Nature of the experiment: Apoptosis assay (Annexin V/PI), cell survival. The following applies: Homo sapiens; OCI-LY19 (DLBCL), 48 hours. In kind it is cell-based. As to the method: as §1, §2, §3
For another experiment, the system named is Granta-519. Put plainly: Apoptosis assay (Annexin V/PI), cell survival. In kind it is cell-based. The following applies: Homo sapiens; Granta-519 (MCL), 48 hours. As to the method: as §1, §2, §3
The test system of the next experiment is MyLa. Nature of the experiment: Apoptosis assay (Annexin V/PI), cell survival. In kind it is cell-based. The settings on record: Homo sapiens; MyLa (TCL), 48 hours. As to the method: as §1, §2, §3
A further experiment deals with Mino. Nature of the experiment: Apoptosis assay (Annexin V/PI), cell survival. In kind it is cell-based. The following applies: Homo sapiens; Mino (MCL), 48 hours. As to the method: as §1, §2, §3
A further experiment has as its system OCI-LY1. Nature of the experiment: Apoptosis assay (Annexin V/PI), cell survival. In kind it is cell-based. The settings on record: Homo sapiens; OCI-LY1 (DLBCL), 48 hours. As to the method: as §1, §2, §3
The next experiment relates to Karpas-299. Put plainly: Apoptosis assay (Annexin V/PI), cell survival. In kind it is cell-based. The following applies: Homo sapiens; Karpas-299 (TCL), 48 hours. The procedure:
as §1, §2, §3

A further experiment has as its system OCI-Ly3. Put plainly: Apoptosis assay (Annexin V/PI), cell survival. In kind it is cell-based. The following applies: Homo sapiens; OCI-Ly3 (DLBCL), 48 hours. The procedure: as §1, §2, §3
A further experiment concerns SeAx. Put plainly: Apoptosis assay (Annexin V/PI), cell survival. In kind it is cell-based. The following applies: Homo sapiens; SeAx (TCL), 48 hours. The procedure:
as §1, §2, §3

The next experiment concerns SU-DHL6. Put plainly: Apoptosis assay (Annexin V/PI), cell survival. In kind it is cell-based. The settings on record: Homo sapiens, SU-DHL-6; SU-DHL6 (DLBCL), 48 hours. As to the method: as §1, §2, §3
The test system of a further experiment is Jeko derived xenograft. Put plainly: Jeko derived MCL xenograft mouse model. In kind it is in vivo. The settings on record: NSG mice, 40 mg/kg every other day IP, day 17.
The subject of the next experiment is Jeko cells. Nature of the experiment: Mitotic stage morphology (Wright stain, differential counting). Type of experiment: cell-based, human. The following applies: 1.0 uM, 24 hours. The procedure: (A) Cartoon depiction of the sequential steps (M1-M5) during mitosis (purchased from Shutterstock and modified). (B). Representative Wright stain images of Jeko cells untreated and treated with 1.0 uM 9-ING-41 for 24 hours. […] (C). Bar chart showing the number of mitotic M1-M5 cells identified when 100 untreated or 9-ING-41 treated Jeko cells were counted.
Although cells arrested in G2/M appear as a single DNA content (4N) peak on a flow cytometry histogram (FIG. 6A), there are actually at least 5 sequential steps (M1-M5) in G2/M critical to successful cell division. These include prophase (M1, chromosome condensation, mitotic spindle formation starts), prometaphase (M2, nuclear membrane breakdown, centrosome polarization), metaphase (M3, chromosome pairs align middle plane), anaphase (M4, daughter chromatids separate), telophase (M5, reformation of daughter nuclei), and the final cytokinesis (separation of two daughter cells). Each of these discrete steps has a unique identifiable nuclear morphology on Wright's stained cells (depicted in FIG. 7A). The morphology of untreated and 9-ING-41 treated Jeko cells to determine at what stage they become arrested was examined. […] These observations support the conclusion that GSK3 activity is necessary for the progression of mitotic prophase.

The test system of experiment [1] is GSK3β localization in Jeko cells. Put plainly: Immunofluorescence staining for GSK3β localization. Type of experiment: cell-based, human. The settings on record: 9-ING-41 treated Jeko cells.
Protocol: (B) A close-up (magnification) image of that shown in (A). […] (L) A close-up image of a mitotic cell shown in (K). (M) An overlay image showing the microtubule structure by α-tubulin (red) staining and DNA (in blue). (N) A close-up image of that shown in (M). […] (R) A close-up image of a representative mitotic cell shown in (Q). All other immunostainings of GSK3β and α-Tubulin on cytospin preparations of lymphoma cells were fixed with 4% paraformaldehyde in PBS for 15 min at room temperature followed by permeabilization and the same staining steps as above. The cells were analyzed and imaged on a conventional Zeiss microscope or a Zeiss LSR 780 confocal microscope. To determine the intracellular localization of GSK3β in mitotic cells, GSK3β localization in normal mitotic Jeko cells was analyzed. […] The localization of GSK3β in 9-ING-41 treated Jeko cells (FIG. 8Q-R) was determined.
In the next experiment the test system is TCL and MCL lines. Nature of the experiment: Apoptosis assay in TCL and MCL lines. Type of experiment: cell-based, human. The following applies: low doses, 48 hours. The procedure:
Unstimulated peripheral blood B- and T-lymphocytes isolated from a healthy donor were used as normal control. Pro-apoptotic effect of the GSK3 inhibitor 9-ING-41 in various MCL and TCL lines (A) and DLBCL lines (B). (C) Cell proliferation profile of various lymphoma cell lines upon treatment with 9-ING-41. Results (A-C) are from 3 independent experiments.
as §1, §3

Experiment [2] has as its system NF-κB, DNA damage and apoptotic pathways in lymphoma cell lines. Put plainly: Luminex analysis of NF-κB, DNA damage and apoptotic pathway signaling. The following applies: 1 μM, 48 hours. Type of experiment: cell-based. From the text: Signaling changes in NF-κB [MILLIPLEXMAP NF-κB Signaling Magnetic Bead Kit 6-plex Kit, EMD Millipore, analytes: c-MYC, FADD (Ser194), IκBα (Ser32), IKKα/β (Ser177/Ser181), NF-κB (Ser536), TNFR1], DNA damage [MILLIPLEX MAP DNA Damage/Genotoxicity Magnetic Bead Panel, EMD Millipore, analytes: ATR (total), Chk1 (Ser345), Chk2 (Thr68), H2A.X (Ser139), MDM2 (total), p21 (Total), p53 (Ser15)], and apoptotic pathways [Bio-plex pro RBM apoptosis panel 2 and 3, Bio-Rad, analytes: Bad, Bax/Bcl-2 dimer, Bcl-xL, Bim, Mcl-1, active caspase 3, Bcl-xL/Bak dimer, Mcl-1/Bak dimer, survivin] associated with 1 μM 9-ING-41 treatment for 48 hours as compared to no-treatment controls were determined using Luminex multiplex technology with a FLEXMAP 3D instrument, as per manufacturer instructions. Cells were lysed in MILLIPLEX MAP Lysis buffer supplemented with protease inhibitor cocktail (Sigma) and phosphatase inhibitor cocktails 2 and 3 (Sigma) and, after BCA protein determination, 15 μg of protein was added to each well. All samples were run in duplicate and changes in MFI or absolute quantity between 9-ING-41-treated cells and nontreated control were analyzed, and an unpaired t-test was performed to determine statistical significance.

The IC50 is the midpoint of a concentration-inhibition curve.

Description for Jeko derived xenograft: The images shown were collected at the end of the experiment (day 17). […] An MCL xenograft mouse model was established by subcutaneously injecting NGS mice with Jeko cells expressing the firefly luciferase reporter gene Fluc. NSG (NOD.Cg-PrkdcscidIl2rgtm1Wjl/SzJ) mice used in these experiments were purchased from the Jackson Laboratory (Bar Harbor, Maine). Eight to ten mice of same sex at 8 weeks of age were subcutaneously injected with 5×10^6 Fluc expressing Jeko cells in the right flanks. Tumor engraftment was verified by imaging 4 days after Jeko cell inoculation. […] Tumor volumes were measured by an IVIS Imager (Xenogen, Alameda, CA) 20 minutes after IP injection of 200 ul of 15 mg/ml D-leuciferin (GoldBio, St. Louis, MO) and anesthetized with 2.5% isoflurane. All imaging variables were kept consistent for comparativeness. The experiment terminated when the largest tumor met the size limit of the IACUC protocol.

For the compound `Cn1cc(C2=C(c3coc4ccc(F)cc34)C(=O)NC2=O)c2cc3c(cc21)OCO3` [9-ING-41, 3-(5-Fluorobenzofuran-3-yl)-4-(5-methyl-5H-[1,3]dioxolo[4,5-f]indol-7-yl)pyrrole-2,5-dione], the IC50 was determined as 1.28 µM in the experiment with Jeko; 2.21 µM in the experiment with OCI-LY19; 0.77 µM in the experiment on Granta-519; 0.69 µM with MyLa; 0.55 µM in the experiment on Mino; 3.05 µM in the experiment on OCI-LY1. Moreover, the IC50 with Karpas-299 came out at 3.34 µM; in the experiment with OCI-Ly3, 3.76 µM; in the experiment with SeAx it was 1.6 µM; with SU-DHL6 it was 1.58 µM. Besides, the “Tumor size and luciferase activity versus control” value in the experiment with Jeko derived xenograft is given as “smaller tumors with much lower luciferase activity”. Besides, in the experiment with Jeko cells, the “Mitotic stages seen among 100 mitotic cells” value was “only prophase (M1) cells”. In experiment [1], the “Effect on localization of GSK3β” value is listed as “did not alter the localization of GSK3β”. Also, in the experiment with TCL and MCL lines, the “Apoptosis in TCL and MCL lines” value is “induced apoptosis”. Also, the “Total c-MYC levels” value in experiment [2] (Karpas 422 and TMD8 cell lines) is recorded as “significant reduction”. In addition, in [2] (SUDHL-4 and Karpas 422 cell lines, p<0.05), the “DNA damage signaling, p-H2A.X (Ser139)” value is listed as “increased”. For the same compound, the “phospho-p53 (Ser15)” value in experiment [2] (SUDHL-4 and TMD8 cells) was “significant increase”. Moreover, the “Reduction in Bcl-x1/Bak dimer expression” value in experiment [2] (all cell lines except TMD8, p<0.05) is reported as ~1.5 fold. In experiment [2] (all lymphoma cell lines except KPUM-UH1, p<0.05), the “Reduction in Mcl-1/Bak dimers” value is listed as ~2 fold. For the same compound, in experiment [2] (all lymphoma cell lines except TMD8), the “Active caspase 3” value is given as “increase in active caspase 3”. For the same compound, the Reduction in survivin in experiment [2] (all lymphoma cell lines except TMD8, p<0.05) was ~2 fold.
